Measurements: paper PMC5656653, “Evaluation of Ga-DOTA-(D-Asp)n as bone imaging agents: D-aspartic acid peptides as carriers to bone” (Scientific Reports, 2017)
“Also recorded” adds a separate entry of the source. Each block holds one molecule with its values, some of them ahead of it. Where a SMILES comes first, the peptide text is derived from it. [ ]: non-standard residue; d: D form. The star is where a group is joined. DOTA = O=C(O)CN1CCN(CC(=O)O)CCN(CC(=O)*)CCN(CC(=O)O)CC1

Test: Biodistribution experiments in normal mice after i.v. injection
Assay type: in vivo
Settings: for Biodistribution of radioactivity, Blood / Biodistribution of radioactivity, Bone (Femur) / Biodistribution of radioactivity, Brain / Biodistribution of radioactivity, Heart / Biodistribution of radioactivity, Kidney / Biodistribution of radioactivity, Large-intestine / Biodistribution of radioactivity, Liver / Biodistribution of radioactivity, Lung / Biodistribution of radioactivity, Muscle / Biodistribution of radioactivity, Pancreas / Biodistribution of radioactivity, Small-intestine / Biodistribution of radioactivity, Spleen / F/B ratio (Femur:blood ratio) / Biodistribution of radioactivity, Stomach: mice, mean (SD); for Biodistribution of radioactivity, Stomach: footnote b; for tissue uptake dose at 10 min / tissue uptake dose at 1 h / tissue uptake dose at 3 h: male, ddY, total radioactivity, Biodistribution of radioactivity
Description: Experiments with animals were conducted in strict accordance with the Guidelines for the Care and Use of Laboratory Animals of Kanazawa University. The animal experimental protocols used were approved by the Committee on Animal Experimentation of Kanazawa University (Permit Number: AP-132633). Biodistribution experiments were performed after intravenous administration of each diluted tracer solution (37–740 kBq/100 μL) to 6-week-old male ddY mice (27–32 g, Japan SLC, Inc., Hamamatsu, Japan). Four or five mice at each time point after the administration of each compound were sacrificed by decapitation at 10, 60, and 180 min post-injection. Tissues of interest were taken and weighed. Complete left femurs were isolated as representative bone samples, radioactivity was determined using gamma counters (AccuFLEX γ ARC-8001 in the case of ^18F, Hitachi, Ltd.), and background counts and physical decay were corrected during counting.

[1] = mouse, in vivo, iv, Bone (Femur)
[2] = mouse, in vivo, iv, Large-intestine
[3] = mouse, in vivo, iv, Small-intestine

Structure (SMILES): [18F-].[Na+] [[^18F]NaF, reference compound]
- Biodistribution of radioactivity, Blood (i.v., 10 min after injection): 1.78 (0.23) % injected dose
- Biodistribution of radioactivity, Bone (Femur) (i.v., 10 min after injection): 27.69 (3.15) % injected dose
- Biodistribution of radioactivity, Brain (i.v., 10 min after injection): 0.10 (0.02) % injected dose
- Biodistribution of radioactivity, Heart (i.v., 10 min after injection): 1.84 (0.41) % injected dose
- Biodistribution of radioactivity, Kidney (i.v., 10 min after injection): 5.23 (2.31) % injected dose
- Biodistribution of radioactivity, Large-intestine (i.v., 10 min after injection): 0.95 (0.22) % injected dose
- Biodistribution of radioactivity, Liver (i.v., 10 min after injection): 1.34 (0.17) % injected dose
- Biodistribution of radioactivity, Lung (i.v., 10 min after injection): 1.44 (0.19) % injected dose
- Biodistribution of radioactivity, Muscle (i.v., 10 min after injection): 0.83 (0.13) % injected dose
- Biodistribution of radioactivity, Pancreas (i.v., 10 min after injection): 0.87 (0.15) % injected dose
- Biodistribution of radioactivity, Small-intestine (i.v., 10 min after injection): 1.31 (0.22) % injected dose
- Biodistribution of radioactivity, Spleen (i.v., 10 min after injection): 1.10 (0.15) % injected dose
- F/B ratio (Femur:blood ratio) (i.v., 10 min after injection): 15.59 (1.01)
- Biodistribution of radioactivity, Stomach (i.v., 10 min after injection): 0.36 (0.04) % injected dose
- Biodistribution of radioactivity, Blood (i.v., 60 min after injection): 0.11 (0.04) % injected dose
- Biodistribution of radioactivity, Bone (Femur) (i.v., 60 min after injection): 39.96 (2.52) % injected dose
- Biodistribution of radioactivity, Brain (i.v., 60 min after injection): 0.36 (0.52) % injected dose
- Biodistribution of radioactivity, Heart (i.v., 60 min after injection): 0.15 (0.05) % injected dose
- Biodistribution of radioactivity, Kidney (i.v., 60 min after injection): 1.13 (0.89) % injected dose
- Biodistribution of radioactivity, Large-intestine (i.v., 60 min after injection): 1.21 (0.27) % injected dose
- Biodistribution of radioactivity, Liver (i.v., 60 min after injection): 0.09 (0.02) % injected dose
- Biodistribution of radioactivity, Lung (i.v., 60 min after injection): 0.10 (0.03) % injected dose
- Biodistribution of radioactivity, Muscle (i.v., 60 min after injection): 0.07 (0.04) % injected dose
- Biodistribution of radioactivity, Pancreas (i.v., 60 min after injection): 0.08 (0.08) % injected dose
- Biodistribution of radioactivity, Small-intestine (i.v., 60 min after injection): 0.68 (0.10) % injected dose
- Biodistribution of radioactivity, Spleen (i.v., 60 min after injection): 0.08 (0.02) % injected dose
- F/B ratio (Femur:blood ratio) (i.v., 60 min after injection): 381.63 (84.17)
- Biodistribution of radioactivity, Stomach (i.v., 60 min after injection): 0.06 (0.02) % injected dose
- Biodistribution of radioactivity, Blood (i.v., 180 min after injection): 0.02 (0.00) % injected dose
- Biodistribution of radioactivity, Bone (Femur) (i.v., 180 min after injection): 43.91 (2.64) % injected dose
- Biodistribution of radioactivity, Brain (i.v., 180 min after injection): 0.05 (0.02) % injected dose
- Biodistribution of radioactivity, Heart (i.v., 180 min after injection): 0.02 (0.01) % injected dose
- Biodistribution of radioactivity, Kidney (i.v., 180 min after injection): 0.15 (0.08) % injected dose
- Biodistribution of radioactivity, Large-intestine (i.v., 180 min after injection): 1.39 (0.19) % injected dose
- Biodistribution of radioactivity, Liver (i.v., 180 min after injection): 0.02 (0.00) % injected dose
- Biodistribution of radioactivity, Lung (i.v., 180 min after injection): 0.03 (0.01) % injected dose
- Biodistribution of radioactivity, Muscle (i.v., 180 min after injection): 0.01 (0.01) % injected dose
- Biodistribution of radioactivity, Pancreas (i.v., 180 min after injection): 0.02 (0.03) % injected dose
- Biodistribution of radioactivity, Small-intestine (i.v., 180 min after injection): 0.06 (0.02) % injected dose
- Biodistribution of radioactivity, Spleen (i.v., 180 min after injection): 0.02 (0.00) % injected dose
- F/B ratio (Femur:blood ratio) (i.v., 180 min after injection): 1983.88 (256.88)
- Biodistribution of radioactivity, Stomach (i.v., 180 min after injection): 0.13 (0.14) % injected dose
- Accumulation of radioactivity in bone (in words) (normal mice, i.v.): high accumulation and retention of radioactivity in bone; also recorded: highest bone uptake

- tissue uptake dose at 10 min (mouse, in vivo, iv, Blood): 2.19 %ID
- tissue uptake dose at 1 h (mouse, in vivo, iv, Blood): 0.24 %ID
- tissue uptake dose at 3 h (mouse, in vivo, iv, Blood): 0.05 %ID
- tissue uptake dose at 10 min [1]: 1.57 %ID
- tissue uptake dose at 1 h [1]: 0.88 %ID
- tissue uptake dose at 3 h [1]: 0.49 %ID
- tissue uptake dose at 10 min (mouse, in vivo, iv, Brain): 0.07 %ID
- tissue uptake dose at 1 h (mouse, in vivo, iv, Brain): 0.02 %ID
- tissue uptake dose at 3 h (mouse, in vivo, iv, Brain): 0.01 %ID
- tissue uptake dose at 10 min (mouse, in vivo, iv, Heart): 0.86 %ID
- tissue uptake dose at 1 h (mouse, in vivo, iv, Heart): 0.11 %ID
- tissue uptake dose at 3 h (mouse, in vivo, iv, Heart): 0.06 %ID
- tissue uptake dose at 10 min (mouse, in vivo, iv, Kidney): 7.61 %ID
- tissue uptake dose at 1 h (mouse, in vivo, iv, Kidney): 6.33 %ID
- tissue uptake dose at 3 h (mouse, in vivo, iv, Kidney): 1.42 %ID
- tissue uptake dose at 10 min [2]: 0.37 %ID
- tissue uptake dose at 1 h [2]: 0.12 %ID
- tissue uptake dose at 3 h [2]: 0.38 %ID
- tissue uptake dose at 10 min (mouse, in vivo, iv, Liver): 0.57 %ID
- tissue uptake dose at 1 h (mouse, in vivo, iv, Liver): 0.31 %ID
- tissue uptake dose at 3 h (mouse, in vivo, iv, Liver): 0.11 %ID
- tissue uptake dose at 10 min (mouse, in vivo, iv, Lung): 1.45 %ID
- tissue uptake dose at 1 h (mouse, in vivo, iv, Lung): 0.26 %ID
- tissue uptake dose at 3 h (mouse, in vivo, iv, Lung): 0.08 %ID
- tissue uptake dose at 10 min (mouse, in vivo, iv, Muscle): 0.53 %ID
- tissue uptake dose at 1 h (mouse, in vivo, iv, Muscle): 0.11 %ID
- tissue uptake dose at 3 h (mouse, in vivo, iv, Muscle): 0.08 %ID
- tissue uptake dose at 10 min (mouse, in vivo, iv, Pancreas): 0.57 %ID
- tissue uptake dose at 1 h (mouse, in vivo, iv, Pancreas): 0.15 %ID
- tissue uptake dose at 3 h (mouse, in vivo, iv, Pancreas): 0.09 %ID
- tissue uptake dose at 10 min [3]: 0.5 %ID
- tissue uptake dose at 1 h [3]: 0.14 %ID
- tissue uptake dose at 3 h [3]: 0.08 %ID
- tissue uptake dose at 10 min (mouse, in vivo, iv, Spleen): 0.5 %ID
- tissue uptake dose at 1 h (mouse, in vivo, iv, Spleen): 0.24 %ID
- tissue uptake dose at 3 h (mouse, in vivo, iv, Spleen): 0.08 %ID
- tissue uptake dose at 10 min (mouse, in vivo, iv, Stomach): 0.24 %ID
- tissue uptake dose at 1 h (mouse, in vivo, iv, Stomach): 0.06 %ID
- tissue uptake dose at 3 h (mouse, in vivo, iv, Stomach): 0.36 %ID
Structure (SMILES): O=C(O)C[C@@H](NC(=O)[C@@H](CC(=O)O)NC(=O)CN1CCN(CC(=O)O)CCN(CC(=O)O)CCN(CC(=O)O)CC1)C(=O)O [^67Ga-DOTA-(D-Asp)2, metal not drawn] ({DOTA}-[dD]-[dD]-OH)
- Accumulation of radioactivity in bone (in words) (mouse, in vivo, iv): subtle accumulation of radioactivity in bone

- tissue uptake dose at 1 h (mouse, in vivo, iv, Blood): 0.27 %ID
- tissue uptake dose at 3 h (mouse, in vivo, iv, Blood): 0.13 %ID
- tissue uptake dose at 10 min [1]: 6.78 %ID
- tissue uptake dose at 1 h [1]: 5.01 %ID
- tissue uptake dose at 3 h [1]: 2.8 %ID
- tissue uptake dose at 10 min (mouse, in vivo, iv, Brain): 0.1 %ID
- tissue uptake dose at 1 h (mouse, in vivo, iv, Brain): 0.02 %ID
- tissue uptake dose at 3 h (mouse, in vivo, iv, Brain): 0.01 %ID
- tissue uptake dose at 10 min (mouse, in vivo, iv, Heart): 1.03 %ID
- tissue uptake dose at 1 h (mouse, in vivo, iv, Heart): 0.12 %ID
- tissue uptake dose at 3 h (mouse, in vivo, iv, Heart): 0.06 %ID
- tissue uptake dose at 10 min (mouse, in vivo, iv, Kidney): 12 %ID
- tissue uptake dose at 1 h (mouse, in vivo, iv, Kidney): 6.31 %ID
- tissue uptake dose at 3 h (mouse, in vivo, iv, Kidney): 1.45 %ID
- tissue uptake dose at 10 min [2]: 0.47 %ID
- tissue uptake dose at 1 h [2]: 0.22 %ID
- tissue uptake dose at 3 h [2]: 0.22 %ID
- tissue uptake dose at 10 min (mouse, in vivo, iv, Liver): 0.67 %ID
- tissue uptake dose at 1 h (mouse, in vivo, iv, Liver): 0.22 %ID
- tissue uptake dose at 3 h (mouse, in vivo, iv, Liver): 0.14 %ID
- tissue uptake dose at 10 min (mouse, in vivo, iv, Lung): 2.03 %ID
- tissue uptake dose at 1 h (mouse, in vivo, iv, Lung): 0.3 %ID
- tissue uptake dose at 3 h (mouse, in vivo, iv, Lung): 0.09 %ID
- tissue uptake dose at 10 min (mouse, in vivo, iv, Muscle): 0.68 %ID
- tissue uptake dose at 1 h (mouse, in vivo, iv, Muscle): 0.13 %ID
- tissue uptake dose at 3 h (mouse, in vivo, iv, Muscle): 0.07 %ID
- tissue uptake dose at 10 min (mouse, in vivo, iv, Pancreas): 0.72 %ID
- tissue uptake dose at 1 h (mouse, in vivo, iv, Pancreas): 0.25 %ID
- tissue uptake dose at 3 h (mouse, in vivo, iv, Pancreas): 0.06 %ID
- tissue uptake dose at 10 min [3]: 0.55 %ID
- tissue uptake dose at 1 h [3]: 0.23 %ID
- tissue uptake dose at 3 h [3]: 0.18 %ID
- tissue uptake dose at 10 min (mouse, in vivo, iv, Spleen): 0.56 %ID
- tissue uptake dose at 1 h (mouse, in vivo, iv, Spleen): 0.16 %ID
- tissue uptake dose at 3 h (mouse, in vivo, iv, Spleen): 0.11 %ID
- tissue uptake dose at 10 min (mouse, in vivo, iv, Stomach): 0.32 %ID
- tissue uptake dose at 1 h (mouse, in vivo, iv, Stomach): 0.1 %ID
- tissue uptake dose at 3 h (mouse, in vivo, iv, Stomach): 0.48 %ID
Structure (SMILES): O=C(O)C[C@@H](NC(=O)[C@@H](CC(=O)O)NC(=O)[C@@H](CC(=O)O)NC(=O)[C@@H](CC(=O)O)NC(=O)[C@@H](CC(=O)O)NC(=O)CN1CCN(CC(=O)O)CCN(CC(=O)O)CCN(CC(=O)O)CC1)C(=O)O [^67Ga-DOTA-(D-Asp)5, metal not drawn] ({DOTA}-[dD][dD][dD][dD][dD]-OH)
- Accumulation of radioactivity in bone (in words) (mouse, in vivo, iv): moderate accumulation of radioactivity in bone
